Data taken from ChEMBL document CHEMBL4507281, “Data for DCP probe BI-4394” (2021).

How the values were obtained:
[1] = system: Tyrosine-protein kinase ABL1 (Homo sapiens), P00519 [F317I]; conditions: Compound concentration 100.0 nM
[2] = system: ALK tyrosine kinase receptor (Homo sapiens), Q9UM73 [L1196M]; conditions: Compound concentration 100.0 nM
[3] = biological target: T1, Aurora kinase A (Homo sapiens) (UniProt O14965); conditions: Compound concentration 100.0 nM
T1 sequence (whole entry): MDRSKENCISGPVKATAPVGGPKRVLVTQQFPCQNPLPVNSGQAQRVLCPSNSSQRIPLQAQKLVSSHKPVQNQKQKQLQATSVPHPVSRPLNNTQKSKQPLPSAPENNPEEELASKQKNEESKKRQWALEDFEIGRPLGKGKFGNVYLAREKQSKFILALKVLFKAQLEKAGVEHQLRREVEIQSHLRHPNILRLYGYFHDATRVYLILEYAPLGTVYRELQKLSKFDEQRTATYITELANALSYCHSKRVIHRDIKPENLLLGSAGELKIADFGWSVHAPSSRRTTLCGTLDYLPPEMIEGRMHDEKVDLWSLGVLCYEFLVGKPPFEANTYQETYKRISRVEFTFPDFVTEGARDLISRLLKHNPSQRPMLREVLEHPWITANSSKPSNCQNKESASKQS

[4] = biological target: Aurora kinase C (Homo sapiens) (UniProt Q9UQB9); conditions: Compound concentration 100.0 nM
[5] = biological target: Cyclin-dependent kinase 4 (Homo sapiens) (UniProt P11802); conditions: Compound concentration 100.0 nM
[6] = biological target: Casein kinase I isoform delta (Homo sapiens) (UniProt P48730); conditions: Compound concentration 100.0 nM
Sequence of Casein kinase I isoform delta (Homo sapiens) (P48730 whole entry, looked up, canonical isoform): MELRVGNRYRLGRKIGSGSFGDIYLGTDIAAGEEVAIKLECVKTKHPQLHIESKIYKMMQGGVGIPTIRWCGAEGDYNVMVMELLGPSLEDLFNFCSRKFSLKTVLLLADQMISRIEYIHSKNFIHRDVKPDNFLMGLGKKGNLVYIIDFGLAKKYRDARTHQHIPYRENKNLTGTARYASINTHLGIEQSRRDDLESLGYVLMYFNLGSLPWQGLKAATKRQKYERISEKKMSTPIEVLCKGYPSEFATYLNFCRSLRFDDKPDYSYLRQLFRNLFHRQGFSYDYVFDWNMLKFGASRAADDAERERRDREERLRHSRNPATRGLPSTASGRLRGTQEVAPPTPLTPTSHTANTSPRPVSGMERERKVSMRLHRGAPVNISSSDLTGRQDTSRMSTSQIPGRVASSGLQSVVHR

[7] = biological target: Megakaryocyte-associated tyrosine-protein kinase (Homo sapiens) (UniProt P42679); conditions: Compound concentration 100.0 nM
[8] = system: Epidermal growth factor receptor (Homo sapiens), P00533 [UNDEFINED MUTATION]; conditions: Compound concentration 100.0 nM
[9] = biological target: Ephrin type-A receptor 4 (Homo sapiens) (UniProt P54764); conditions: Compound concentration 100.0 nM
[10] = biological target: Ephrin type-A receptor 6 (Homo sapiens) (UniProt Q9UF33); conditions: Compound concentration 100.0 nM
[11] = biological target: Ephrin type-A receptor 7 (Homo sapiens) (UniProt Q15375); conditions: Compound concentration 100.0 nM
Sequence of Ephrin type-A receptor 7 (Homo sapiens) (Q15375 28-998 limits assumed): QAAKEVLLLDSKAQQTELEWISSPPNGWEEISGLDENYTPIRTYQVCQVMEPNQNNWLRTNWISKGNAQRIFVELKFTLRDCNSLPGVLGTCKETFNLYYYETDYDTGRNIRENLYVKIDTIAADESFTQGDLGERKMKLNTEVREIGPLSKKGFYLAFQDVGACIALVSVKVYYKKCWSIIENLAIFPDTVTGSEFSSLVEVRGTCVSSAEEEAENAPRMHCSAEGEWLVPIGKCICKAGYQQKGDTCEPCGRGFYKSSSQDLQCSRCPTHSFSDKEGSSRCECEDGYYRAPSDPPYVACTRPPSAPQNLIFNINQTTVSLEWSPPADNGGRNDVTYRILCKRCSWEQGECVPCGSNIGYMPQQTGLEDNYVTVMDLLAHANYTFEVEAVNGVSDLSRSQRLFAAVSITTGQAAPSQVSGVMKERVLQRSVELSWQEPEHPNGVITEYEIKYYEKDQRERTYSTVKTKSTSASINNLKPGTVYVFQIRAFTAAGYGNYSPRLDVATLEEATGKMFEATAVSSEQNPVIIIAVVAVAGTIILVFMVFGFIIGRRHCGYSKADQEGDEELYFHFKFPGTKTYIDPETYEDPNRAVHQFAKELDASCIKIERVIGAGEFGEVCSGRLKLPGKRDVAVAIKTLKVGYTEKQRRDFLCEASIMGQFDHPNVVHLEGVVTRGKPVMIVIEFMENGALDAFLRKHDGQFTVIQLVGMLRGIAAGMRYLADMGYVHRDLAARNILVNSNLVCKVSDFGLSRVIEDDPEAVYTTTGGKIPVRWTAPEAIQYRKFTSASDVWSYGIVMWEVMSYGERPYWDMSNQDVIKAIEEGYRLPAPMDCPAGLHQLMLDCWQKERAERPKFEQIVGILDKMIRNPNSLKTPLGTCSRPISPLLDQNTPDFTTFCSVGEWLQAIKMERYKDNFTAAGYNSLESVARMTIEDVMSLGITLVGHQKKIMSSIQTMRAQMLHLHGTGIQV

[12] = system: Receptor-type tyrosine-protein kinase FLT3 (Homo sapiens), P36888 [D835V]; conditions: Compound concentration 100.0 nM
[13] = biological target: Receptor-type tyrosine-protein kinase FLT3 (Homo sapiens) (UniProt P36888); conditions: Compound concentration 100.0 nM
[14] = biological target: Homeodomain-interacting protein kinase 2 (Homo sapiens) (UniProt Q9H2X6); conditions: Compound concentration 100.0 nM
[15] = biological target: Inhibitor of nuclear factor kappa-B kinase subunit alpha (Homo sapiens) (UniProt O15111); conditions: Compound concentration 100.0 nM
[16] = biological target: Interleukin-1 receptor-associated kinase 1 (Homo sapiens) (UniProt P51617); conditions: Compound concentration 100.0 nM
Sequence of Interleukin-1 receptor-associated kinase 1 (Homo sapiens) (P51617 whole entry, looked up): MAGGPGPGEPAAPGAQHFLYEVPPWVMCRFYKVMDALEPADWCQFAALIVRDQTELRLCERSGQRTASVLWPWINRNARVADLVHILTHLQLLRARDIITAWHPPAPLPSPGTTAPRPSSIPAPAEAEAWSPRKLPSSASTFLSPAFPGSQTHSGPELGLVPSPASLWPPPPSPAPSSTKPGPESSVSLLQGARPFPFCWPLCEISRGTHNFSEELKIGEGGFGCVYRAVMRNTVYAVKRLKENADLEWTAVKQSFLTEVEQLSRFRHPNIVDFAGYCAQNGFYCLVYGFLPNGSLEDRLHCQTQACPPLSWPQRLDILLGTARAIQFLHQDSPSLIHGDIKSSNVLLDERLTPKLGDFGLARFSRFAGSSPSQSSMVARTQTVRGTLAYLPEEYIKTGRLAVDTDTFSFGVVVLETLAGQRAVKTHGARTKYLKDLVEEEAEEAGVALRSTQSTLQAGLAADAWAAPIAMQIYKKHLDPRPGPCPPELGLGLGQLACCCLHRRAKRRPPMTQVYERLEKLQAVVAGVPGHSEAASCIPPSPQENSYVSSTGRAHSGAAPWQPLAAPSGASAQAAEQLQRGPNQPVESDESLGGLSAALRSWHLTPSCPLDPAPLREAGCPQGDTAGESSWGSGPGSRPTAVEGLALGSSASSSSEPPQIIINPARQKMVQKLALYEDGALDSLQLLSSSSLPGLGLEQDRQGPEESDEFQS

[17] = biological target: Serine/threonine-protein kinase 10 (Homo sapiens) (UniProt O94804); conditions: Compound concentration 100.0 nM
[18] = biological target: Leukocyte tyrosine kinase receptor (Homo sapiens) (UniProt P29376); conditions: Compound concentration 100.0 nM
[19] = biological target: MAP/microtubule affinity-regulating kinase 3 (Homo sapiens) (UniProt P27448); conditions: Compound concentration 100.0 nM
Sequence of MAP/microtubule affinity-regulating kinase 3 (Homo sapiens) (P27448 whole entry, looked up): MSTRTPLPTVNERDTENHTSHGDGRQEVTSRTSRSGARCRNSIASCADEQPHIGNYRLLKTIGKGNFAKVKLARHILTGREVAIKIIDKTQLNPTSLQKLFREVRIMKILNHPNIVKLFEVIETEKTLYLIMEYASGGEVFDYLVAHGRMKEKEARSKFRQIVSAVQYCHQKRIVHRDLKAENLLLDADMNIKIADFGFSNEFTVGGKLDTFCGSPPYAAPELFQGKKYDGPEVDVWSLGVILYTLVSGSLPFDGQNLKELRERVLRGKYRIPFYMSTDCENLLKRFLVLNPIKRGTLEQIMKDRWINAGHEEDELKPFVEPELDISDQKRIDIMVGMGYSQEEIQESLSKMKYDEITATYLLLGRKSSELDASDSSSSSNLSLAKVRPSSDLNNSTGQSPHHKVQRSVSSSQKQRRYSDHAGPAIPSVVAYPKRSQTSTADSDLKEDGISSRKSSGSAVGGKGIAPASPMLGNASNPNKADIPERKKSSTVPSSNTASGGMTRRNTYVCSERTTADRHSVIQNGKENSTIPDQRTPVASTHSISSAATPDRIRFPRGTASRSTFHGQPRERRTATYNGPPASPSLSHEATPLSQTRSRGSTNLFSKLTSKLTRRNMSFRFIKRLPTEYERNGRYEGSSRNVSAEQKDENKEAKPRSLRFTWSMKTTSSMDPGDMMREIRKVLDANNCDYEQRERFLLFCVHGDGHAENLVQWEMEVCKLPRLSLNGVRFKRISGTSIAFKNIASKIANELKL

[20] = biological target: Dual specificity mitogen-activated protein kinase kinase 1 (Homo sapiens) (UniProt Q02750); conditions: Compound concentration 100.0 nM
[21] = biological target: Myosin light chain kinase (Homo sapiens) (UniProt Q32MK0); conditions: Compound concentration 100.0 nM
[22] = biological target: Serine/threonine-protein kinase MRCK alpha (Homo sapiens) (UniProt Q5VT25); conditions: Compound concentration 100.0 nM
[23] = biological target: Serine/threonine-protein kinase 4 (Homo sapiens) (UniProt Q13043); conditions: Compound concentration 100.0 nM
[24] = biological target: Serine/threonine-protein kinase 3 (Homo sapiens) (UniProt Q13188); conditions: Compound concentration 100.0 nM
[25] = biological target: Serine/threonine-protein kinase 26 (Homo sapiens) (UniProt Q9P289); conditions: Compound concentration 100.0 nM
[26] = biological target: Serine/threonine-protein kinase Nek9 (Homo sapiens) (UniProt Q8TD19); conditions: Compound concentration 100.0 nM
[27] = biological target: Mitogen-activated protein kinase 12 (Homo sapiens) (UniProt P53778); conditions: Compound concentration 100.0 nM
Sequence of Mitogen-activated protein kinase 12 (Homo sapiens) (P53778 whole entry): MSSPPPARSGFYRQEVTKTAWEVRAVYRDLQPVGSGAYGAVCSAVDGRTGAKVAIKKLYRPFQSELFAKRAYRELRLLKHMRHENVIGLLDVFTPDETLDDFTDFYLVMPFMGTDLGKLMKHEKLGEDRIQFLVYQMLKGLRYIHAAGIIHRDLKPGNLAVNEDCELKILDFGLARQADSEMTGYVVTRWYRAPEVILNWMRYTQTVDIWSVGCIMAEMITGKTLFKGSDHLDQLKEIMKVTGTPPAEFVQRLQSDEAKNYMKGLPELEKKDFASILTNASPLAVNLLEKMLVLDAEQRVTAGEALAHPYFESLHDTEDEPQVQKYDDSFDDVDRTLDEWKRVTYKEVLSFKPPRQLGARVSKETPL

[28] = biological target: Phosphatidylinositol 5-phosphate 4-kinase type-2 gamma (Homo sapiens) (UniProt Q8TBX8); conditions: Compound concentration 100.0 nM
[29] = biological target: Serine/threonine-protein kinase TAO1 (Homo sapiens) (UniProt Q7L7X3); conditions: Compound concentration 100.0 nM
[30] = biological target: Angiopoietin-1 receptor (Homo sapiens) (UniProt Q02763); conditions: Compound concentration 100.0 nM
[31] = biological target: Activated CDC42 kinase 1 (Homo sapiens) (UniProt Q07912); conditions: Compound concentration 100.0 nM
[32] = biological target: NT-3 growth factor receptor (Homo sapiens) (UniProt Q16288); conditions: Compound concentration 100.0 nM
[33] = biological target: Dual specificity protein kinase TTK (Homo sapiens) (UniProt P33981); conditions: Compound concentration 100.0 nM
[34] = biological target: Serine/threonine-protein kinase WNK2 (Homo sapiens) (UniProt Q9Y3S1); conditions: Compound concentration 100.0 nM
[35] = biological target: 5-hydroxytryptamine receptor 2C (Homo sapiens) (UniProt P28335); conditions: Compound concentration 10.0 uM
[36] = biological target: Sodium-dependent serotonin transporter (Homo sapiens) (UniProt P31645); conditions: Compound concentration 10.0 uM
[37] = biological target: Muscarinic acetylcholine receptor M3 (Homo sapiens) (UniProt P20309); conditions: Compound concentration 10.0 uM
Sequence of Muscarinic acetylcholine receptor M3 (Homo sapiens) (P20309 whole entry, looked up): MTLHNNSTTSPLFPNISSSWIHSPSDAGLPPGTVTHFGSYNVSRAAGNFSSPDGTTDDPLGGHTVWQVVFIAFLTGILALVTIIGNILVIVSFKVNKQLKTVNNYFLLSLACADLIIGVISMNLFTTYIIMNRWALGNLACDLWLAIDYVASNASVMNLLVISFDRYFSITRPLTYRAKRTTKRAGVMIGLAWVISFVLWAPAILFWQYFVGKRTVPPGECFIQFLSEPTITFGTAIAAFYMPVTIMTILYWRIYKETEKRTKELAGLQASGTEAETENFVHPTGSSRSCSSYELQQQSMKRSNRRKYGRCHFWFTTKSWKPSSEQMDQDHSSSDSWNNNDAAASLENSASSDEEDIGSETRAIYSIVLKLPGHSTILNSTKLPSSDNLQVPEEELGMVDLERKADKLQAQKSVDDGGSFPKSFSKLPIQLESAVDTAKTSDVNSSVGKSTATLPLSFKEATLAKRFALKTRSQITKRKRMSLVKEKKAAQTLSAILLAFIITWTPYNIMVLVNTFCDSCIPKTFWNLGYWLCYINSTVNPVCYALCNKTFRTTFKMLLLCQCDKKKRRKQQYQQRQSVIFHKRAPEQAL

Sequence of Tyrosine-protein kinase ABL1 (Homo sapiens), P00519 [F317I] (P00519 whole entry F317I): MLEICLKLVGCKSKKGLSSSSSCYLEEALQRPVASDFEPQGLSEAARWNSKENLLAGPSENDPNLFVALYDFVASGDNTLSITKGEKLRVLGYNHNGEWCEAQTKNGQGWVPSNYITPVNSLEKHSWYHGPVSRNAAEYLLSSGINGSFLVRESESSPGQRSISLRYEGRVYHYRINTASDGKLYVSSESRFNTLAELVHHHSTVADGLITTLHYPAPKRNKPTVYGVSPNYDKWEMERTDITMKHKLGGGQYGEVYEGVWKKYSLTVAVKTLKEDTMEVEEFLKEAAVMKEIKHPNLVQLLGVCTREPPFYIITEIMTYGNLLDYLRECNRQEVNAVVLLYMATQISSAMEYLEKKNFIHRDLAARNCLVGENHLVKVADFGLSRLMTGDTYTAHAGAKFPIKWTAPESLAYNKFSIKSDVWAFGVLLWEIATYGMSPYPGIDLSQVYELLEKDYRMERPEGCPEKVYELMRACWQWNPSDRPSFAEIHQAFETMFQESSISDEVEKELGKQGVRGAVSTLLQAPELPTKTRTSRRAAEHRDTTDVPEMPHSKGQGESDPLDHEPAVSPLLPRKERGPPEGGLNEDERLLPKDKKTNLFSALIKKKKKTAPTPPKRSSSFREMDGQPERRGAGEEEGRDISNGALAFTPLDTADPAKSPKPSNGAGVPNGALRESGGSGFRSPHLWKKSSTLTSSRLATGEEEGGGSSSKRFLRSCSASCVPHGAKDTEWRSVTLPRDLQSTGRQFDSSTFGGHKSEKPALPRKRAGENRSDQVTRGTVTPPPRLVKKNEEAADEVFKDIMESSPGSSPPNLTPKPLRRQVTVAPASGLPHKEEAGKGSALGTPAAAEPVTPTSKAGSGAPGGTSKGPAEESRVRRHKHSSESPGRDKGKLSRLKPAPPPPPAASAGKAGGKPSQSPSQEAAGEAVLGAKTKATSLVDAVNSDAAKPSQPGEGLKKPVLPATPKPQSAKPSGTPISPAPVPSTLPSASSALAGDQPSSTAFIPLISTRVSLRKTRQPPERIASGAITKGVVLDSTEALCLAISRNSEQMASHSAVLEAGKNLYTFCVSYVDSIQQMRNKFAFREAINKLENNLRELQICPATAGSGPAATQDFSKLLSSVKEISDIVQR

CCOC(=O)c1cc2cc(-c3cc(C(=O)NCc4ccc(C(=O)O)cc4)nn3C)ccc2[nH]1 [BI 4394]
inactive: residual activity [1] 80% | residual activity [2] 98% | residual activity [3] 90% | residual activity [4] 100% | residual activity [5] 74% | residual activity [6] 81% | residual activity [7] 96% | residual activity [8] 100% | residual activity [9] 96% | residual activity [10] 94% | residual activity [11] 97% | residual activity [12] 90% | residual activity [13] 98% | residual activity [14] 82% | residual activity [15] 100% | residual activity [16] 85% | residual activity [17] 100% | residual activity [18] 100% | residual activity [19] 93% | residual activity [20] 90% | residual activity [21] 89% | residual activity [22] 100% | residual activity [23] 100% | residual activity [24] 96% | residual activity [25] 81% | residual activity [26] 98% | residual activity [27] 77% | residual activity [28] 95% | residual activity [29] 90% | residual activity [30] 83% | residual activity [31] 100% | residual activity [32] 94% | residual activity [33] 93% | residual activity [34] 85% | inhibition [35] 3.56% | inhibition [36] -0.14% | inhibition [37] 4.89%

Cn1nc(C(=O)NCc2ccc(C(=O)O)cc2)cc1-c1ccc2[nH]ccc2c1 [BI 4395]
inactive: residual activity [1] 68% | residual activity [2] 100% | residual activity [3] 100% | residual activity [4] 76% | residual activity [5] 88% | residual activity [6] 84% | residual activity [7] 86% | residual activity [8] 100% | residual activity [9] 100% | residual activity [10] 100% | residual activity [11] 82% | residual activity [12] 98% | residual activity [13] 95% | residual activity [14] 97% | residual activity [15] 90% | residual activity [16] 93% | residual activity [17] 80% | residual activity [18] 81% | residual activity [19] 81% | residual activity [20] 91% | residual activity [21] 100% | residual activity [22] 79% | residual activity [23] 80% | residual activity [24] 91% | residual activity [25] 95% | residual activity [26] 99% | residual activity [27] 90% | residual activity [28] 63% | residual activity [29] 91% | residual activity [30] 82% | residual activity [31] 100% | residual activity [32] 89% | residual activity [33] 88% | residual activity [34] 70% | inhibition [35] -9.67% | inhibition [36] 5.3% | inhibition [37] -0.66%
